Tested on: relapsed or refractory DLBCL
Test: Compound A treatment of relapsed or refractory DLBCL patients stratified by 26-gene (Table 2) classifier: PFS and tumor measurement
Type: in vivo, human
Conditions: for PFS: Compound A treatment (FIG. 3)
From the text: In another exemplary study, a computational decision function was applied to gene expression values for the 26 genes in Table 2 to predict the positive/negative outcome sub-group membership of relapsed or refractory DLBCL patients for responsiveness to Compound A treatment alone or in combination with other agents.
The response to Compound A treatment of each of a group of relapsed or refractory DLBCL patients was predicated based on the gene expression levels of 26 genes of Table 2, and the group of patients were classified into two populations—the population predicted to be responsive to Compound A treatment (26 genes positive population) and the other population predicted to be not responsive to Compound A (26 genes negative population).
The expression levels of the 26 genes were measured as follows: DLBCL lymph-node biopsies were formalin fixed and paraffin embedded. Nucleic acids obtained from the tissues were extracted using the Roche High Pure FPPET kit, according to the manufacturer's instructions. The RNA was quantitated using spectrophotometry (NanoDrop, Thermo Science, DE). Gene expression on approximately 200 nanograms of RNA was used to determine gene expression levels by means of NanoString technology (NanoString Technologies, WA). The total RNA was hybridized to the custom codesets at 65° C. overnight. The reaction was processed on the nCounter™ Prep Station and gene expression data was then acquired on the nCounter™ Digital Analyzer.
Then, the patients' response to Compound A treatment were measured by progression free survival (PFS). The results are shown in FIG. 3, and as shown, that there is a significant benefit, as measured by PFS, of 26 gene positive population (upper line) as compared to 26 genes negative population (lower line) (PFS 17.43 weeks in 26 genes positive population versus PFS 6.57 weeks in 26 genes negative population).
Additionally, the response to Compound A of DLBCL patients with historically poor prognosis was measured by Nanostring. […] This is comparison to patients in the 26 genes positive population (blue line), in which 4 patients obtained a durable clinical response of greater than 50% decrease in tumor size (see FIG. 8). Similar results were observed when examining patients with primary refractory DLBCL that had also had at least 3 or more prior lines of therapy (see FIG. 9).

Cc1nc2cccc(N)c2c(=O)n1C1CCC(=O)NC1=O (centres unmarked) [Compound A, 3-(5-amino-2-methyl-4-oxo-4H-quinazolin-3-yl)-piperidine-2,6-dione]
PFS at 6 months (26 genes negative population): 5.4%
PFS (26 genes negative population): 6.57 weeks
PFS at 6 months (26 genes positive population): 44.6%
PFS (26 genes positive population): 17.43 weeks
median PFS (ABC subtype of DLBCL (FIG. 7)): 12.1 weeks
median PFS (GCB subtype of DLBCL (FIG. 7)): 15.6 weeks
tumor measurement, clinical response (majority of patients in the 26 genes negative population (FIG. 5)): rapid progression or short responses
tumor measurement, clinical response (majority of patients in the 26 genes positive population (FIG. 4)): clinical response of greater than 50% decrease in tumor size and/or have stable disease
tumor measurement, clinical course (primary refractory disease (less than complete response to R-CHOP), 26 genes negative population (FIG. 8)): experienced rapid progression
patients who obtained a durable clinical response of greater than 50% decrease in tumor size (primary refractory disease (less than complete response to R-CHOP), 26 genes positive population (FIG. 8)): 4 patients
median PFS (unclassified subtype of DLBCL (FIG. 7)): 7 weeks

From patent US10689708B2, “Methods for treating diffuse large B-cell lymphoma and the use of biomarkers as a predictor of responsiveness to drugs” (Celgene Corporation, priority 2015, dated 2020)
